Experimental data from patent publication US8410153B2, “Naphthalene isoxazoline invertebrate pest control agents” (E.I. du Pont de Nemours and Company, priority 2007, dated 2013).

Key:
Format in all cases: in vivo
[1] = system: diamondback moth (Plutella xylostella); experiment: Test A: control of diamondback moth on radish plant, foliar spray; conditions: sprayed at 50 ppm, held 6 days
Procedure, shortened: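 Radish plants 12–14 days old, pre-infested with about 50 neonate larvae, sprayed at 50 ppm in 10% acetone/water with 300 ppm X-77 surfactant; three replicates. After 6 days at 25° C and 70% RH, feeding damage was scored visually and mortality counted.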

[2] = system: fall armyworm (Spodoptera frugiperda); experiment: Test B: control of fall armyworm on corn (maize) plant, foliar spray; conditions: sprayed at 50 ppm
Procedure, shortened: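 4-5-day-old corn plants pre-infested with 10-15 1-day-old larvae on insect diet, then sprayed with compound at 50 ppm in 10% acetone/90% water with 300 ppm surfactant, three replicates. Held 6 days at 25° C, 70% RH; feeding damage assessed visually and mortality rated.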

[3] = system: western flower thrips (Frankliniella occidentalis); experiment: Test E: control of western flower thrips on Soleil bean plant, contact and/or systemic; conditions: held 6 days
Procedure, shortened: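 5–7-day-old Soleil bean plants were sprayed at 250 or 50 ppm in 10% acetone/90% water with 300 ppm X-77 surfactant, three replicates. After drying 1 h, 22–27 adult thrips were added per unit. Mortality and plant damage were rated after 6 days at 25 °C and 45–55% RH.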

Measured: levels of control efficacy (20% or less feeding damage or 80% or more mortality)

CC(C)NC(=O)CNC(=O)c1ccc(C2=NOC(c3cc(Cl)cc(Cl)c3)(C(F)(F)F)C2)c2ccccc12 (centres unmarked) [Compound 5]
very good to excellent: [1] | [2] | [3]; sprayed at 50 ppm | [3]; sprayed at 250 ppm

CNC(=O)C(C)NC(=O)c1ccc(C2=NOC(c3cc(Br)cc(C(F)(F)F)c3)(C(F)(F)F)C2)c2ccccc12 (mixture of isomers) [Compound 141]
very good to excellent: [1] | [2] | [3]; sprayed at 50 ppm

COCC(C)NC(=O)c1ccc(C2=NOC(c3cccc(C(F)(F)F)c3)(C(F)(F)F)C2)c2ccccc12 (mixture of isomers) [Compound 47]
very good to excellent: [1] | [2] | [3]; sprayed at 50 ppm | [3]; sprayed at 250 ppm

CC(CO)NC(=O)c1ccc(C2=NOC(c3cc(Cl)cc(Cl)c3)(C(F)(F)F)C2)c2ccccc12 (mixture of isomers) [Compound 31]
very good to excellent: [1] | [2] | [3]; sprayed at 50 ppm | [3]; sprayed at 250 ppm

CSCCCNC(=O)c1ccc(C2=NOC(c3cc(Cl)cc(Cl)c3)(C(F)(F)F)C2)c2ccccc12 (centres unmarked) [Compound 22]
very good to excellent: [1] | [2] | [3]; sprayed at 50 ppm | [3]; sprayed at 250 ppm

O=C(CNC(=O)c1ccc(C2=NOC(c3cc(Cl)cc(C(F)(F)F)c3)(C(F)(F)F)C2)c2ccccc12)NCC(F)(F)F (centres unmarked) [Compound 62]
very good to excellent: [1] | [2] | [3]; sprayed at 50 ppm | [3]; sprayed at 250 ppm

CC(NC(=O)c1ccc(C2=NOC(c3cc(Cl)cc(Cl)c3)(C(F)(F)F)C2)c2ccccc12)C(=O)NC(C)C(F)(F)F (mixture of isomers) [Compound 123]
very good to excellent: [1] | [2] | [3]; sprayed at 50 ppm | [3]; sprayed at 250 ppm

CNC(=O)CNC(=O)c1ccc(C2=NOC(c3cc(C(F)(F)F)cc(C(F)(F)F)c3)(C(F)(F)F)C2)c2ccccc12 (centres unmarked) [Compound 105]
very good to excellent: [1] | [2] | [3]; sprayed at 50 ppm

CSCC(C)NC(=O)c1ccc(C2=NOC(c3cc(Cl)cc(Cl)c3)(C(F)(F)F)C2)c2ccccc12 (centres unmarked) [Compound 30]
very good to excellent: [1] | [2] | [3]; sprayed at 250 ppm

CC(CO)NC(=O)c1ccc(C2=NOC(c3cccc(C(F)(F)F)c3)(C(F)(F)F)C2)c2ccccc12 (mixture of isomers) [Compound 41]
very good to excellent: [1] | [2] | [3]; sprayed at 50 ppm | [3]; sprayed at 250 ppm

O=C(CNC(=O)c1ccc(C2=NOC(c3cc(Cl)c(Cl)c(Cl)c3)(C(F)(F)F)C2)c2ccccc12)NCC(F)(F)F (centres unmarked) [Compound 19]
very good to excellent: [1] | [2] | [3]; sprayed at 50 ppm | [3]; sprayed at 250 ppm

CC(C)NC(=O)CNC(=O)c1ccc(C2=NOC(c3cc(Br)cc(C(F)(F)F)c3)(C(F)(F)F)C2)c2ccccc12 (racemic) [Compound 53]
very good to excellent: [1] | [2] | [3]; sprayed at 50 ppm | [3]; sprayed at 250 ppm

CSCCNC(=O)c1ccc(C2=NOC(c3cc(Cl)c(Cl)c(Cl)c3)(C(F)(F)F)C2)c2ccccc12 (centres unmarked) [Compound 15]
very good to excellent: [1] | [2] | [3]; sprayed at 50 ppm | [3]; sprayed at 250 ppm

CNC(=O)CNC(=O)c1ccc(C2=NOC(c3cc(Br)cc(C(F)(F)F)c3)(C(F)(F)F)C2)c2ccccc12 (racemic) [Compound 143]
very good to excellent: [1] | [2] | [3]; sprayed at 50 ppm

O=C(CNC(=O)c1ccc(C2=NOC(c3cc(Cl)cc(Cl)c3)(C(F)(F)F)C2)c2ccccc12)NCC(F)(F)F (centres unmarked) [Compound 1]
very good to excellent: [1] | [2] | [3]; sprayed at 50 ppm | [3]; sprayed at 250 ppm

CSCC(C)NC(=O)c1ccc(C2=NOC(c3cc(C(F)(F)F)cc(C(F)(F)F)c3)(C(F)(F)F)C2)c2ccccc12 (mixture of isomers) [Compound 60]
very good to excellent: [1] | [2] | [3]; sprayed at 250 ppm

CSCCNC(=O)c1ccc(C2=NOC(c3cc(C(F)(F)F)cc(C(F)(F)F)c3)(C(F)(F)F)C2)c2ccccc12 (racemic) [Compound 58]
very good to excellent: [1] | [2] | [3]; sprayed at 50 ppm | [3]; sprayed at 250 ppm

CC(C)NC(=O)CNC(=O)c1ccc(C2=NOC(c3cc(Cl)cc(C(F)(F)F)c3)(C(F)(F)F)C2)c2ccccc12 (centres unmarked) [Compound 63]
very good to excellent: [1] | [2] | [3]; sprayed at 50 ppm | [3]; sprayed at 250 ppm

CC(C)NC(=O)CNC(=O)c1ccc(C2=NOC(c3cc(C(F)(F)F)cc(C(F)(F)F)c3)(C(F)(F)F)C2)c2ccccc12 (racemic) [Compound 40]
very good to excellent: [1] | [2] | [3]; sprayed at 50 ppm | [3]; sprayed at 250 ppm

O=C(CNC(=O)c1ccc(C2=NOC(c3cc(Br)cc(C(F)(F)F)c3)(C(F)(F)F)C2)c2ccccc12)NCC(F)(F)F (racemic) [Compound 52]
very good to excellent: [1] | [2] | [3]; sprayed at 50 ppm | [3]; sprayed at 250 ppm

CS(=O)(=O)CCNC(=O)c1ccc(C2=NOC(c3cc(Cl)cc(Cl)c3)(C(F)(F)F)C2)c2ccccc12 (centres unmarked) [Compound 20]
very good to excellent: [1] | [2] | [3]; sprayed at 50 ppm | [3]; sprayed at 250 ppm

CSCCNC(=O)c1ccc(C2=NOC(c3cccc(C(F)(F)F)c3)(C(F)(F)F)C2)c2ccccc12 (racemic) [Compound 34]
very good to excellent: [1] | [2] | [3]; sprayed at 50 ppm | [3]; sprayed at 250 ppm
